Here are results for 23 molecules from patent publication US11976057B2, “MrgX2 antagonists” (GlaxoSmithKline Intellectual Property Development Limited, priority 2020, dated 2024).

Bounds are passed on as bounds.

This assay has as its target T1, human MRGPRX2 (Homo sapiens, UniProt Q96LB1).
T1 sequence (Q96LB1 1-330): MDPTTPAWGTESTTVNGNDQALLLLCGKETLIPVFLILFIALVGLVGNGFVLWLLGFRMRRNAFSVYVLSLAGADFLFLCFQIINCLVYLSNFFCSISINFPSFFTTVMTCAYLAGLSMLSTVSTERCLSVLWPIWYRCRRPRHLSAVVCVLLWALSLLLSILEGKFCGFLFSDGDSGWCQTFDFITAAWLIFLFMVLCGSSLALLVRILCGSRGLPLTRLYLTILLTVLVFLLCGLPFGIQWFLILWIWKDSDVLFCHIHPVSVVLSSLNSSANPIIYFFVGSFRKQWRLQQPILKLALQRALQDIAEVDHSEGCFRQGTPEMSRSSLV
Description: Ca2+ mobilization assay (FLIPR TETRA): inhibition of Cortistatin-14 mediated MRGPRX2 activation.
By IC50 is commonly meant the concentration that inhibits the measured activity by half. `C[C@@H](C(=O)Nc1ccc(Oc2cc(F)c(F)cc2F)cn1)N1CCC(F)(F)[C@@H](c2ccc(=O)[nH]c2)C1` [Example 97, (S)-2-((S)-4,4-difluoro-3-(6-oxo-1,6-dihydropyridin-3-yl)piperidin-1-yl)-N-(5-(2,4,5-trifluorophenoxy)pyridin-2-yl)propanamide] yielded a half-inhibitory concentration (IC50) of at most 10 nM.

Turning to `C[C@@H](C(=O)Nc1ccc(Oc2ccc(F)cc2F)cn1)[C@H]1CCC[C@@H](c2ccc(=O)[nH]c2)C1` [Example 282, (R)—N-(5-(2,4-difluorophenoxy)pyridin-2-yl)-2-((1S,3R)-3-(6-oxo-1,6-dihydropyridin-3-yl)cyclohexyl)propanamide], the half-inhibitory concentration (IC50) was at most 10 nM.

With `C[C@@H](C(=O)Nc1ccc(Cl)cn1)N1CCC[C@@H](c2c[nH]c(=O)c(CN)c2)C1` (single isomer, unassigned) [Example 175], the half-inhibitory concentration (IC50) fell in the range of 3160 to 31600 nM.

On to `CC(C(=O)Nc1ccc(-c2cccs2)cn1)N1CCC(F)(F)[C@@H](c2ccc(=O)[nH]c2)C1` (stereo partly drawn) [Example 50, 2-((S)-4,4-difluoro-3-(6-oxo-1,6-dihydropyridin-3-yl)piperidin-1-yl)-N-(5-(thiophen-2-yl)pyridin-2-yl)propanamide], for which the 50% inhibitory concentration (IC50) is 100 to 3160 nM.

`C[C@@H](C(=O)Nc1ccc(Oc2ncc(F)cc2F)cn1)N1CCC(F)(F)[C@@H](c2cc[n+]([O-])cc2)C1` [Example 116] had an IC50 of 10 to 100 nM.

Consider `CC(C(=O)Nc1cnc(Oc2ccc(F)cc2CO)cn1)N1CCC(F)(F)[C@@H](c2cc[n+]([O-])cc2)C1` (some centres unmarked) [Example 274], for which the IC50 fell in the range of 100 to 3160 nM.

The molecule `CC(C(=O)Nc1ccc(F)cn1)N1CCC(F)(F)C(c2ccc(=O)n(Cc3ccncc3)c2)C1` (centres unmarked) [Example 197, 2-(4,4-difluoro-3-(6-oxo-1-(pyridin-4-ylmethyl)-1,6-dihydropyridin-3-yl)piperidin-1-yl)-N-(5-fluoropyridin-2-yl)propanamide] returned an IC50 of 10 to 100 nM.

`C[C@@H](C(=O)Nc1ccc(Oc2c(F)cccc2F)cn1)N1CCC(F)(F)[C@@H](c2cc[n+]([O-])cc2)C1` [Example 130, 4-((S)-1-((S)-1-((5-(2,6-difluorophenoxy)pyridin-2-yl)amino)-1-oxopropan-2-yl)-4,4-difluoropiperidin-3-yl)pyridine 1-oxide] displayed an IC50 of at most 10 nM.

`CC(C(=O)Nc1ccc(Oc2cncc(F)c2)cn1)N1CCC(F)(F)[C@@H](c2ccc(=O)[nH]c2)C1` (stereo partly drawn) [Example 67, 2-((S)-4,4-difluoro-3-(6-oxo-1,6-dihydropyridin-3-yl)piperidin-1-yl)-N-(5-((5-fluoropyridin-3-yl)oxy)pyridin-2-yl)propanamide] registered a concentration for half-maximal inhibition (IC50) of 10 to 100 nM.

In the case of `C[C@@H](C(=O)Nc1ccc(OCC2CC2)nn1)N1CCC(F)(F)[C@@H](c2ccc(=O)n(CC(F)(F)F)c2)C1` [Example 1, (S)—N-(6-(cyclopropylmethoxy)pyridazin-3-yl)-2-((S)-4,4-difluoro-3-(6-oxo-1-(2,2,2-trifluoroethyl)-1,6-dihydropyridin-3-yl)piperidin-1-yl)propanamide], the half-maximal inhibitory concentration (IC50) is at most 10 nM.

Molecule `CC(C(=O)Nc1ccc(OC2CCC2)cn1)N1CCC(F)(F)[C@@H](c2ccc(=O)[nH]c2)C1` (stereo partly drawn) [Example 78, N-(5-cyclobutoxy-pyridin-2-yl)-2-((S)-4,4-difluoro-3-(6-oxo-1,6-dihydropyridin-3-yl)piperidin-1-yl)propanamide] came in with an IC50 of 100 to 3160 nM.

Regarding `CNCc1cc([C@H]2CN([C@@H](C)C(=O)Nc3ccc(Oc4ccc(F)cc4F)cn3)CCC2(F)F)c[nH]c1=O` [Example 243, (S)-2-((S)-4,4-difluoro-3-(5-((methylamino)methyl)-6-oxo-1,6-dihydropyridin-3-yl)piperidin-1-yl)-N-(5-(2,4-difluorophenoxy)pyridin-2-yl)propanamide], the half-inhibitory concentration (IC50) was at most 10 nM.

As to `C[C@@H](C(=O)Nc1ccc(Oc2ccc(F)cc2F)cn1)N1CCC(F)(F)[C@@H](c2cc[n+]([O-])c(CO)c2)C1` [Example 255], the 50% inhibitory concentration (IC50) was at most 10 nM.

Take `CC(C(=O)Nc1ccc2cc(C3CC3)cnc2n1)N1CCC(F)(F)[C@@H](c2ccc(=O)[nH]c2)C1` (stereo partly drawn) [Example 77, N-(6-cyclopropyl-1,8-naphthyridin-2-yl)-2-((S)-4,4-difluoro-3-(6-oxo-1,6-dihydropyridin-3-yl)piperidin-1-yl)propanamide]: the 50% inhibitory concentration (IC50) lay in the range of 100 to 3160 nM.

Molecule `CC(C(=O)Nc1ncc(Oc2ccc(F)cc2F)cc1F)N1CCC(F)(F)[C@@H](c2ccc(=O)[nH]c2)C1` (stereo partly drawn) [Example 87, 2-((S)-4,4-difluoro-3-(6-oxo-1,6-dihydropyridin-3-yl)piperidin-1-yl)-N-(5-(2,4-difluorophenoxy)-3-fluoropyridin-2-yl)propanamide] showed an IC50 of at most 10 nM.

In the case of `C[C@@H](C(=O)Nc1ccc(F)cn1)N1CCC(F)(F)[C@@H](c2cc[n+]([O-])cc2)C1` [Example 113, 4-((S)-4,4-difluoro-1-((S)-1-((5-fluoropyridin-2-yl)amino)-1-oxopropan-2-yl)piperidin-3-yl)pyridine 1-oxide], the IC50 was in the range of 100 to 3160 nM.

`C[C@@H](C(=O)Nc1ccc(Oc2ccc(F)cc2CO)cn1)N1CCC(F)(F)[C@@H](c2ccc(=O)[nH]c2)C1` [Example 271, (S)-2-((S)-4,4-difluoro-3-(6-oxo-1,6-dihydropyridin-3-yl)piperidin-1-yl)-N-(5-(4-fluoro-2-(hydroxymethyl)phenoxy)pyridin-2-yl)propanamide] had a concentration for half-maximal inhibition (IC50) of 10 to 100 nM.

`C[C@@H](C(=O)Nc1cnc(Oc2ccc(F)c(F)c2F)cn1)N1CCC(F)(F)[C@@H](c2cc[n+]([O-])cc2)C1` [Example 122, 4-((S)-4,4-difluoro-1-((S)-1-oxo-1-((5-(2,3,4-trifluorophenoxy)pyrazin-2-yl)amino)propan-2-yl)piperidin-3-yl)pyridine 1-oxide] returned an IC50 of at most 10 nM.

Turning to `C[C@@H](C(=O)Nc1ccc(Oc2ccc(F)cc2F)cn1)N1CCC(F)(F)C(c2ccnc(CN3CC(F)(F)C3)c2)C1` (mixture of isomers) [Example 270, (2S)-2-(3-(2-((3,3-difluoroazetidin-1-yl)methyl)pyridin-4-yl)-4,4-difluoropiperidin-1-yl)-N-(5-(2,4-difluorophenoxy)pyridin-2-yl)propanamide], the half-inhibitory concentration (IC50) was 10 to 100 nM.

Consider `C[C@@H](C(=O)Nc1cnc(Oc2ccc(F)cc2F)cn1)N1CCC[C@@H](c2cc[n+]([O-])cc2)C1` [Example 181, 4-((S)-1-((S)-1-((5-(2,4-difluorophenoxy)pyrazin-2-yl)amino)-1-oxopropan-2-yl)piperidin-3-yl)pyridine 1-oxide], for which the IC50 was 10 to 100 nM.

For the molecule `C[C@@H](C(=O)Nc1ccc(Oc2ccccn2)cn1)N1CCC(F)(F)[C@@H](c2cc[n+]([O-])cc2)C1` [Example 126, 4-((S)-4,4-difluoro-1-((S)-1-oxo-1-((5-(pyridin-2-yloxy)pyridin-2-yl)amino)propan-2-yl)piperidin-3-yl)pyridine 1-oxide], the IC50 lay within 10 to 100 nM.

For `C[C@@H](C(=O)Nc1ccc(OCC2CC2)nn1)N1CCC(F)(F)[C@@H](c2ccc(=O)[nH]c2)C1` [Example 8, N-(6-(cyclopropylmeth-oxy)pyridazin-3-yl)-2-((S)-4,4-difluoro-3-(6-oxo-1,6-dihydropyridin-3-yl)piperidin-1-yl)propanamide], the IC50 lay in the range of 10 to 100 nM.

For `Cc1ccccc1Oc1ccc(NC(=O)[C@H](C)N2CCC(F)(F)[C@@H](c3ccc(=O)[nH]c3)C2)nn1` [Example 20], the IC50 lay within 100 to 3160 nM.
